# Measurements published in patent US12162881B2, “Forms and compositions of inhibitors of JAK2” (Ajax Therapeutics, Inc., priority 2021, dated 2024).
# Several values for one entry are separate records, joined by “and”; a condition that tells them apart may be missing. Equal entries are not always repeated.
# Legend:
# Format in all cases: physicochemical
# [1] = Dynamic vapor sorption (DVS) hygroscopicity; conditions: for Hysteresis: in % (unit assumed); for DVS weight loss upon desorption as water / DVS weight loss upon desorption: desorption from 95% to 5% RH; for post-DVS XRPD: solid recovered after DVS cycle; for DVS hysteresis observation: sorption/desorption 5-95% RH
# Method: Automated vapor sorption (VS) data were collected on a Surface Measurement System DVS Intrinsic instrument. Samples were not dried prior to analysis. Sorption and desorption data were collected over a range from 5% to 95% RH at 10% RH increments under a nitrogen purge. The equilibrium criterion used for analysis was less than 0.0100% weight change in 5 minutes with a maximum equilibration time of 3 hours. Data were not corrected for the initial moisture content of the samples.
# [2] = Approximate Aqueous Solubility of Selected Solid Forms; conditions: ambient temperature; for solubility: water, thermodynamic from solid
# Method: Aliquots of various solvents were added to measured amounts of provided compounds with agitation at ambient temperature until complete dissolution was achieved, as judged by visual observation. If dissolution occurred after the addition of the first aliquot, values were reported as “>”. Results are shown in Table 18, where A is <2 mg/mL; B is <1 mg/mL.
# [3] = Physical Stability of Selected Solid Forms (vacuum oven, XRPD); conditions: vac. oven
# [4] = Drying experiments of solvated Compound 1 materials (vacuum oven, XRPD); conditions: vac., RT, 1 d; listed as Form F
# Method: Drying experiments: Damp and solvated Compound 1 materials were placed in vacuum ovens set to ambient temperature or 80° C. for 1 day. Dried solids were analyzed by XRPD.
# [5] = Solubility Study of Compound 1 Form 1 (solvent aliquot addition, visual observation); conditions: thermodynamic from solid, read-out: Solubility at ambient temperature
# Method: Aliquots of various solvents were added to measured amounts of Compound 1 Form 1 with agitation at ambient temperature until complete dissolution was achieved, as judged by visual observation. […] See Table 15 below, where A is 5-20 mg/mL; B is 1-4.9 mg/mL; and C is <1 mg/mL.
# [6] = visual observation, read-out: Estimated Aqueous Solubility
compound,measurement,setting,value
"CC(=O)Nc1cc(Oc2cnc3nc(Nc4cc(C(F)(F)F)cn(C)c4=O)n(C)c3c2C#N)ccn1.Cl [Compound 2 Form A, N-(4-((7-cyano-1-methyl-2-((1-methyl-2-oxo-5-(trifluoromethyl)-1,2-dihydropyridin-3-yl)amino)-1H-imidazo[4,5-b]pyridin-6-yl)oxy)pyridin-2-yl)acetamide hydrochloride]",Desorp Mass Change (%),[1]; Target RH 5.0%,−0.0582%
same,Sorp Mass Change (%),[1]; Target RH 5.0%,0.0009%
same,Desorp Mass Change (%),[1]; Target RH 15.0%,0.0326%
same,Sorp Mass Change (%),[1]; Target RH 15.0%,0.0521%
same,Hysteresis,[1]; Target RH 15.0%,−0.0195
same,Desorp Mass Change (%),[1]; Target RH 25.0%,0.0900%
same,Sorp Mass Change (%),[1]; Target RH 25.0%,0.0998%
same,Hysteresis,[1]; Target RH 25.0%,−0.0098
same,Desorp Mass Change (%),[1]; Target RH 35.0%,0.1559%
same,Sorp Mass Change (%),[1]; Target RH 35.0%,0.1539%
same,Hysteresis,[1]; Target RH 35.0%,0.0020
same,Desorp Mass Change (%),[1]; Target RH 45.0%,0.2304%
same,Sorp Mass Change (%),[1]; Target RH 45.0%,0.2007%
same,Hysteresis,[1]; Target RH 45.0%,0.0297
same,Desorp Mass Change (%),[1]; Target RH 55.0%,0.3159%
same,Sorp Mass Change (%),[1]; Target RH 55.0%,0.2634%
same,Hysteresis,[1]; Target RH 55.0%,0.0525
same,Desorp Mass Change (%),[1]; Target RH 65.0%,0.4283%
same,Sorp Mass Change (%),[1]; Target RH 65.0%,0.3387%
same,Hysteresis,[1]; Target RH 65.0%,0.0896
same,Desorp Mass Change (%),[1]; Target RH 75.0%,0.5577%
same,Sorp Mass Change (%),[1]; Target RH 75.0%,0.5032%
same,Hysteresis,[1]; Target RH 75.0%,0.0545
same,Desorp Mass Change (%),[1]; Target RH 85.0%,0.6871%
same,Sorp Mass Change (%),[1]; Target RH 85.0%,0.6403%
same,Hysteresis,[1]; Target RH 85.0%,0.0468
same,Desorp Mass Change (%),[1]; Target RH 95.0%,0.9477%
same,Sorp Mass Change (%),[1]; Target RH 95.0%,0.9477%
same,DVS weight loss upon desorption as water,[1],0.3 mol/mol H2O
same,DVS weight loss upon desorption,[1]; hydrochloride,1.01% and 1.0059%
same,post-DVS XRPD,[1],Compound 2 Form A
same,DVS weight gain as water uptake,[1]; sorption from 5% to 95% RH,0.3 mol/mol H2O
same,DVS weight gain,"[1]; sorption from 5% to 95% RH, hydrochloride",0.95% and 0.9468%
same,DVS hysteresis observation,[1],No hysteresis was observed
same,solubility,[2]; [6],< 2000 µg/mL
same,solubility,"[2]; read-out: Aqueous solubility, visually approximated",< 2000 µg/mL
"CC(=O)Nc1cc(Oc2cnc3nc(Nc4cc(C(F)(F)F)cn(C)c4=O)n(C)c3c2C#N)ccn1.O=S(=O)(O)c1ccccc1 [Besylate Form A, N-(4-((7-cyano-1-methyl-2-((1-methyl-2-oxo-5-(trifluoromethyl)-1,2-dihydropyridin-3-yl)amino)-1H-imidazo[4,5-b]pyridin-6-yl)oxy)pyridin-2-yl)acetamide besylate]",XRPD Result (physical stability),"[3]; RT, 5 d",Besylate Form C
same,solubility,[2]; [6],< 1000 µg/mL
"CC(=O)Nc1cc(Oc2cnc3nc(Nc4cc(C(F)(F)F)cn(C)c4=O)n(C)c3c2C#N)ccn1 [Compound 1 Form F, N-(4-((7-cyano-1-methyl-2-((1-methyl-2-oxo-5-(trifluoromethyl)-1,2-dihydropyridin-3-yl)amino)-1H-imidazo[4,5-b]pyridin-6-yl)oxy)pyridin-2-yl)acetamide]",XRPD Result after drying,[4],Form F
"CC(=O)Nc1cc(Oc2cnc3nc(Nc4cc(C(F)(F)F)cn(C)c4=O)n(C)c3c2C#N)ccn1 [Compound 5 Form A, N-(4-((7-cyano-1-methyl-2-((1-methyl-2-oxo-5-(trifluoromethyl)-1,2-dihydropyridin-3-yl)amino)-1H-imidazo[4,5-b]pyridin-6-yl)oxy)pyridin-2-yl)acetamide camsylate]",XRPD Result (physical stability),"[3]; RT, 5 d",Compound 5 Form C
"Br.CC(=O)Nc1cc(Oc2cnc3nc(Nc4cc(C(F)(F)F)cn(C)c4=O)n(C)c3c2C#N)ccn1 [Compound 3 Form A, N-(4-((7-cyano-1-methyl-2-((1-methyl-2-oxo-5-(trifluoromethyl)-1,2-dihydropyridin-3-yl)amino)-1H-imidazo[4,5-b]pyridin-6-yl)oxy)pyridin-2-yl)acetamide hydrobromide]",XRPD Result (physical stability),"[3]; 45° C., 2 d",Compound 3 Form A +
"CC(=O)Nc1cc(Oc2cnc3nc(Nc4cc(C(F)(F)F)cn(C)c4=O)n(C)c3c2C#N)ccn1.CS(=O)(=O)O [Compound 4 Form A, N-(4-((7-cyano-1-methyl-2-((1-methyl-2-oxo-5-(trifluoromethyl)-1,2-dihydropyridin-3-yl)amino)-1H-imidazo[4,5-h]pyridin-6-yl)oxy)pyridin-2-yl)acetamide mesylate]",XRPD Result (physical stability),"[3]; 45° C., 2 d",Compound 4 Form B
"CC(=O)Nc1cc(Oc2cnc3nc(Nc4cc(C(F)(F)F)cn(C)c4=O)n(C)c3c2C#N)ccn1.CCS(=O)(=O)O [Esylate Form A, N-(4-((7-cyano-1-methyl-2-((1-methyl-2-oxo-5-(trifluoromethyl)-1,2-dihydropyridin-3-yl)amino)-1H-imidazo[4,5-b]pyridin-6-yl)oxy)pyridin-2-yl)acetamide esylate]",XRPD Result (physical stability),"[3]; RT, 5 d",Esylate Form A
same,solubility,[2]; [6],< 1000 µg/mL
"CC(=O)Nc1cc(Oc2cnc3nc(Nc4cc(C(F)(F)F)cn(C)c4=O)n(C)c3c2C#N)ccn1 [Compound 1 Form 1, N-(4-((7-cyano-1-methyl-2-((1-methyl-2-oxo-5-(trifluoromethyl)-1,2-dihydropyridin-3-yl)amino)-1H-imidazo[4,5-b]pyridin-6-yl)oxy)pyridin-2-yl)acetamide]",Desorp Mass Change (%),[1]; Target RH 5.0%,−0.011%
same,Sorp Mass Change (%),[1]; Target RH 5.0%,0.001%
same,Desorp Mass Change (%),[1]; Target RH 15.0%,0.103%
same,Sorp Mass Change (%),[1]; Target RH 15.0%,0.068%
same,Hysteresis,[1]; Target RH 15.0%,0.036
same,Desorp Mass Change (%),[1]; Target RH 25.0%,3.654%
same,Sorp Mass Change (%),[1]; Target RH 25.0%,0.118%
same,Hysteresis,[1]; Target RH 25.0%,3.536
same,Desorp Mass Change (%),[1]; Target RH 35.0%,3.877%
same,Sorp Mass Change (%),[1]; Target RH 35.0%,0.292%
same,Hysteresis,[1]; Target RH 35.0%,3.585
same,Desorp Mass Change (%),[1]; Target RH 45.0%,4.084%
same,Sorp Mass Change (%),[1]; Target RH 45.0%,0.396%
same,Hysteresis,[1]; Target RH 45.0%,3.687
same,Desorp Mass Change (%),[1]; Target RH 55.0%,4.203%
same,Sorp Mass Change (%),[1]; Target RH 55.0%,3.757%
same,Hysteresis,[1]; Target RH 55.0%,0.446
same,Desorp Mass Change (%),[1]; Target RH 65.0%,4.403%
same,Sorp Mass Change (%),[1]; Target RH 65.0%,4.049%
same,Hysteresis,[1]; Target RH 65.0%,0.354
same,Desorp Mass Change (%),[1]; Target RH 75.0%,4.578%
same,Sorp Mass Change (%),[1]; Target RH 75.0%,4.282%
same,Hysteresis,[1]; Target RH 75.0%,0.296
same,Desorp Mass Change (%),[1]; Target RH 85.0%,4.677%
same,Sorp Mass Change (%),[1]; Target RH 85.0%,4.534%
same,Hysteresis,[1]; Target RH 85.0%,0.142
same,Desorp Mass Change (%),[1]; Target RH 95.0%,4.804%
same,Sorp Mass Change (%),[1]; Target RH 95.0%,4.804%
same,DVS weight loss,[1]; desorption from 25% to 15% RH,3.55%
same,DVS weight loss as water,[1]; desorption from 25% to 15% RH,1.0 mol/mol H2O
same,DVS weight loss upon desorption,[1],4.82%
same,DVS weight loss upon desorption as water,[1],1.4 mol/mol H2O
same,post-DVS XRPD,[1],very similar
same,DVS weight gain,[1]; sorption from 5% to 95% RH,4.80%
same,DVS weight gain as water uptake,[1]; sorption from 5% to 95% RH,1.4 mol/mol H2O
same,DVS weight gain,[1]; sorption from 45% to 55% RH,3.36%
same,DVS weight gain as water uptake,[1]; sorption from 45% to 55% RH,1.0 mol/mol H2O
same,DVS hysteresis observation,[1],hysteresis evident
same,solubility,"[5]; organic solvent or mixture, solvent ACN",< 1000 µg/mL
same,solubility,"[5]; organic solvent or mixture, solvent DCM",< 1000 µg/mL
same,solubility,"[5]; organic solvent or mixture, solvent DMA",5000 to 20000 µg/mL
same,solubility,"[5]; organic solvent or mixture, solvent MeOH",< 1000 µg/mL
same,solubility,"[5]; organic solvent or mixture, solvent TFE",5000 to 20000 µg/mL
same,solubility,"[5]; organic solvent or mixture, solvent THF",1000 to 4900 µg/mL
same,solubility,"[5]; organic solvent or mixture, solvent acetone",< 1000 µg/mL
same,solubility,"[5]; water, solvent H2O",< 1000 µg/mL
"CC(=O)Nc1cc(Oc2cnc3nc(Nc4cc(C(F)(F)F)cn(C)c4=O)n(C)c3c2C#N)ccn1.O=P(O)(O)O [Phosphate Form A, N-(4-((7-cyano-1-methyl-2-((1-methyl-2-oxo-5-(trifluoromethyl)-1,2-dihydropyridin-3-yl)amino)-1H-imidazo[4,5-b]pyridin-6-yl)oxy)pyridin-2-yl)acetamide phosphate]",XRPD Result (physical stability),"[3]; RT, 5 d",Phosphate Form A
same,solubility,[2]; [6],< 1000 µg/mL
"N-(4-((7-cyano-1-methyl-2-((1-methyl-2-oxo-5-(trifluoromethyl)-1,2-dihydropyridin-3-yl)amino)-1H-imidazo[4,5-b]pyridin-6-yl)oxy)pyridin-2-yl)acetamide edisylate [Edisylate Form A]",XRPD Result (physical stability),"[3]; RT, 5 d",Edisylate Form C
same,Estimated Aqueous Solubility (mg/mL),[2]; visual observation,B (B is <1 mg/mL)
